{"source": "the NIST ThermoML archive (doi:10.1021/je060271a)", "conditions": "283.16 K, Liquid, Vibrating tube method", "note": "Numbers after ± are expanded uncertainties.", "data": [{"smiles": "CCCC(=O)OCC(COC(=O)CCC)(COC(=O)CCC)COC(=O)CCC", "note": "[pentaerythritol tetrabutyrate]", "values": [{"measurement": "mass density", "setting": "6822.2 kPa", "result": "1063 ± 1.3", "unit": "kg/m3"}, {"measurement": "mass density", "setting": "6830 kPa", "result": "1063.1 ± 1.3", "unit": "kg/m3"}, {"measurement": "mass density", "setting": "6835.8 kPa", "result": "1063.1 ± 1.3", "unit": "kg/m3"}, {"measurement": "mass density", "setting": "6840.7 kPa", "result": "1063.1 ± 1.3", "unit": "kg/m3"}, {"measurement": "mass density", "setting": "6845.5 kPa", "result": "1063 ± 1.3", "unit": "kg/m3"}, {"measurement": "mass density", "setting": "6861.6 kPa", "result": "1063 ± 1.3", "unit": "kg/m3"}, {"measurement": "mass density", "setting": "6890.3 kPa", "result": "1063 ± 1.3", "unit": "kg/m3"}, {"measurement": "mass density", "setting": "6919.1 kPa", "result": "1063 ± 1.3", "unit": "kg/m3"}, {"measurement": "mass density", "setting": "6948.8 kPa", "result": "1063 ± 1.3", "unit": "kg/m3"}, {"measurement": "mass density", "setting": "6983.9 kPa", "result": "1063.1 ± 1.3", "unit": "kg/m3"}, {"measurement": "mass density", "setting": "7013.2 kPa", "result": "1063.2 ± 1.3", "unit": "kg/m3"}, {"measurement": "mass density", "setting": "7043.3 kPa", "result": "1063.1 ± 1.3", "unit": "kg/m3"}, {"measurement": "mass density", "setting": "7073.9 kPa", "result": "1063.2 ± 1.3", "unit": "kg/m3"}, {"measurement": "mass density", "setting": "7111.3 kPa", "result": "1063.2 ± 1.3", "unit": "kg/m3"}, {"measurement": "mass density", "setting": "7141.9 kPa", "result": "1063.2 ± 1.3", "unit": "kg/m3"}, {"measurement": "mass density", "setting": "7172.4 kPa", "result": "1063.1 ± 1.3", "unit": "kg/m3"}, {"measurement": "mass density", "setting": "7231.8 kPa", "result": "1063.2 ± 1.3", "unit": "kg/m3"}, {"measurement": "mass density", "setting": "7286.9 kPa", "result": "1063.4 ± 1.3", "unit": "kg/m3"}, {"measurement": "mass density", "setting": "7348.1 kPa", "result": "1063.3 ± 1.3", "unit": "kg/m3"}, {"measurement": "mass density", "setting": "7377.4 kPa", "result": "1063.2 ± 1.3", "unit": "kg/m3"}, {"measurement": "mass density", "setting": "7488.6 kPa", "result": "1063.5 ± 1.3", "unit": "kg/m3"}, {"measurement": "mass density", "setting": "7519.7 kPa", "result": "1063.4 ± 1.3", "unit": "kg/m3"}, {"measurement": "mass density", "setting": "7758.9 kPa", "result": "1063.6 ± 1.3", "unit": "kg/m3"}, {"measurement": "mass density", "setting": "7783.9 kPa", "result": "1063.7 ± 1.3", "unit": "kg/m3"}, {"measurement": "mass density", "setting": "7814.3 kPa", "result": "1063.5 ± 1.3", "unit": "kg/m3"}, {"measurement": "mass density", "setting": "7838.8 kPa", "result": "1063.7 ± 1.3", "unit": "kg/m3"}, {"measurement": "mass density", "setting": "7861.2 kPa", "result": "1063.7 ± 1.3", "unit": "kg/m3"}, {"measurement": "mass density", "setting": "7886.6 kPa", "result": "1063.7 ± 1.3", "unit": "kg/m3"}, {"measurement": "mass density", "setting": "7908.5 kPa", "result": "1063.6 ± 1.3", "unit": "kg/m3"}, {"measurement": "mass density", "setting": "7930.2 kPa", "result": "1063.7 ± 1.3", "unit": "kg/m3"}, {"measurement": "mass density", "setting": "7952.2 kPa", "result": "1063.7 ± 1.3", "unit": "kg/m3"}, {"measurement": "mass density", "setting": "7978.4 kPa", "result": "1063.7 ± 1.3", "unit": "kg/m3"}, {"measurement": "mass density", "setting": "8000.3 kPa", "result": "1063.7 ± 1.3", "unit": "kg/m3"}, {"measurement": "mass density", "setting": "8022.4 kPa", "result": "1063.7 ± 1.3", "unit": "kg/m3"}, {"measurement": "mass density", "setting": "8048.9 kPa", "result": "1063.8 ± 1.3", "unit": "kg/m3"}, {"measurement": "mass density", "setting": "8071.7 kPa", "result": "1063.7 ± 1.3", "unit": "kg/m3"}, {"measurement": "mass density", "setting": "8094.5 kPa", "result": "1063.8 ± 1.3", "unit": "kg/m3"}, {"measurement": "mass density", "setting": "8121.4 kPa", "result": "1063.8 ± 1.3", "unit": "kg/m3"}, {"measurement": "mass density", "setting": "8144.2 kPa", "result": "1063.9 ± 1.3", "unit": "kg/m3"}, {"measurement": "mass density", "setting": "8166.8 kPa", "result": "1063.7 ± 1.3", "unit": "kg/m3"}, {"measurement": "mass density", "setting": "8194.2 kPa", "result": "1063.8 ± 1.3", "unit": "kg/m3"}, {"measurement": "mass density", "setting": "8217.7 kPa", "result": "1063.9 ± 1.3", "unit": "kg/m3"}, {"measurement": "mass density", "setting": "8241.7 kPa", "result": "1063.9 ± 1.3", "unit": "kg/m3"}, {"measurement": "mass density", "setting": "8269.4 kPa", "result": "1063.8 ± 1.3", "unit": "kg/m3"}, {"measurement": "mass density", "setting": "8316.5 kPa", "result": "1063.8 ± 1.3", "unit": "kg/m3"}, {"measurement": "mass density", "setting": "8340.2 kPa", "result": "1063.9 ± 1.3", "unit": "kg/m3"}, {"measurement": "mass density", "setting": "8369.1 kPa", "result": "1063.9 ± 1.3", "unit": "kg/m3"}, {"measurement": "mass density", "setting": "8393.5 kPa", "result": "1063.9 ± 1.3", "unit": "kg/m3"}, {"measurement": "mass density", "setting": "8418.1 kPa", "result": "1063.9 ± 1.3", "unit": "kg/m3"}, {"measurement": "mass density", "setting": "8448 kPa", "result": "1063.9 ± 1.3", "unit": "kg/m3"}, {"measurement": "mass density", "setting": "8472.3 kPa", "result": "1064 ± 1.3", "unit": "kg/m3"}, {"measurement": "mass density", "setting": "8501.9 kPa", "result": "1064.2 ± 1.3", "unit": "kg/m3"}, {"measurement": "mass density", "setting": "8527.3 kPa", "result": "1064 ± 1.3", "unit": "kg/m3"}, {"measurement": "mass density", "setting": "8553.2 kPa", "result": "1064.1 ± 1.3", "unit": "kg/m3"}, {"measurement": "mass density", "setting": "8580.4 kPa", "result": "1064 ± 1.3", "unit": "kg/m3"}, {"measurement": "mass density", "setting": "8605.5 kPa", "result": "1064 ± 1.3", "unit": "kg/m3"}, {"measurement": "mass density", "setting": "8631.2 kPa", "result": "1064.1 ± 1.3", "unit": "kg/m3"}, {"measurement": "mass density", "setting": "8662.6 kPa", "result": "1064 ± 1.3", "unit": "kg/m3"}, {"measurement": "mass density", "setting": "8688.3 kPa", "result": "1064 ± 1.3", "unit": "kg/m3"}, {"measurement": "mass density", "setting": "8719.9 kPa", "result": "1064.1 ± 1.3", "unit": "kg/m3"}, {"measurement": "mass density", "setting": "8746.3 kPa", "result": "1064.2 ± 1.3", "unit": "kg/m3"}, {"measurement": "mass density", "setting": "8772.8 kPa", "result": "1064.2 ± 1.3", "unit": "kg/m3"}, {"measurement": "mass density", "setting": "8799 kPa", "result": "1064.1 ± 1.3", "unit": "kg/m3"}, {"measurement": "mass density", "setting": "8831.6 kPa", "result": "1064.1 ± 1.3", "unit": "kg/m3"}, {"measurement": "mass density", "setting": "8858.5 kPa", "result": "1064.2 ± 1.3", "unit": "kg/m3"}, {"measurement": "mass density", "setting": "8886.1 kPa", "result": "1064.3 ± 1.3", "unit": "kg/m3"}, {"measurement": "mass density", "setting": "8920.4 kPa", "result": "1064.2 ± 1.3", "unit": "kg/m3"}, {"measurement": "mass density", "setting": "8949 kPa", "result": "1064.2 ± 1.3", "unit": "kg/m3"}, {"measurement": "mass density", "setting": "8976.4 kPa", "result": "1064.3 ± 1.3", "unit": "kg/m3"}, {"measurement": "mass density", "setting": "9004.9 kPa", "result": "1064.3 ± 1.3", "unit": "kg/m3"}, {"measurement": "mass density", "setting": "9038.9 kPa", "result": "1064.3 ± 1.3", "unit": "kg/m3"}, {"measurement": "mass density", "setting": "9067 kPa", "result": "1064.4 ± 1.3", "unit": "kg/m3"}, {"measurement": "mass density", "setting": "9095.4 kPa", "result": "1064.4 ± 1.3", "unit": "kg/m3"}]}]}
